This note sets out measurements from publication PMC10765884, “MC180295 is a highly potent and selective CDK9 inhibitor with preclinical in vitro and in vivo efficacy in cancer” (Clinical Epigenetics, 2024).

Like-named read-outs stand apart in the source and are kept apart here.

One data set is described as follows: Pharmacokinetics in rats. The conditions noted are these: rat, plasma, iv, 1 mg/kg; for AUC(0-t): read-out: AUC24hr; for Vd: read-out: Vss. Format: in vivo.
In another data set the test system is UC3. The experiment in a line: Growth inhibition (cell counting, day 5). Type of data set: cell-based. The note with it: Bladder. How it is done:
(§1) The live-cell assay for GFP reactivation in YB5 cells was done as previously described. Cells were treated with a single dose of drug 24 h after seeding at low density, and GFP fluorescence measured in a Millipore Guava flow cytometer (EMD, Millipore) instrument, or by imaging in a Cytation instrument (Agilent). Cancer cell lines (listed in Additional file 1: Fig. S1A) were obtained from ATCC or the Temple/Fox Chase Cellular Repository and cultured in the recommended medium. To measure growth inhibition, cells were seeded in 96-well plates at 40% confluency. Fresh medium was changed the next day and drugs were added directly. Drug-free fresh medium was changed on the fourth day. The cells were collected on day 5 by trypsin, suspended in medium, mixed with trypan blue (Thermo Fisher Scientific) (1:1 ratio), and counted using a LUNA II automated cell counter. Each sample was counted at least three times, and average numbers used for the analysis. Each treatment condition was performed in biological triplicates.

A further data set has as its system WM983B. In words: Growth inhibition (cell counting, day 5). Type of data set: cell-based. The note with it: Melanoma. How it is done: as §1
For a further data set, the system named is SW48. The experiment in a line: Growth inhibition (cell counting, day 5). Format: cell-based. The conditions noted are these: Homo sapiens, Colon. How it is done: as §1
For another data set, the system named is M14. The experiment in a line: Growth inhibition (cell counting, day 5). Format: cell-based. The note with it: Homo sapiens, Melanoma. How it is done:
as §1

The subject of a further data set is Raji. In words: Growth inhibition (cell counting, day 5). Format: cell-based. The note with it: Homo sapiens, Leukemia. How it is done:
as §1

The next data set concerns A2058. The experiment in a line: Growth inhibition (cell counting, day 5). The conditions noted are these: Homo sapiens, Melanoma. Type of data set: cell-based. How it is done: as §1
The subject of a further data set is 451LU. In words: Growth inhibition (cell counting, day 5). Format: cell-based. The note with it: Melanoma. How it is done:
as §1

The subject of a further data set is HCC2218. The experiment in a line: Growth inhibition (cell counting, day 5). Format: cell-based. The conditions noted are these: Homo sapiens, Breast. As for the experimental part:
as §1

A further data set deals with VACCC257. In words: Growth inhibition (cell counting, day 5). Format: cell-based. The conditions noted are these: Melanoma. How it is done: as §1
For a further data set, the system named is J-Tag. The experiment in a line: Growth inhibition (cell counting, day 5). Format: cell-based. The conditions noted are these: Leukemia. How it is done: as §1
The next data set deals with HT29. In words: Growth inhibition (cell counting, day 5). Format: cell-based. The conditions noted are these: Homo sapiens, HT-29; Colon. As for the experimental part: as §1
The test system of another data set is RKO. In words: Growth inhibition (cell counting, day 5). Type of data set: cell-based. The conditions noted are these: Homo sapiens, Colon. As for the experimental part: as §1
A further data set relates to UC6. In words: Growth inhibition (cell counting, day 5). Type of data set: cell-based. The conditions noted are these: Bladder. As for the experimental part:
as §1

The subject of the next data set is Jurkat. The experiment in a line: Growth inhibition (cell counting, day 5). Type of data set: cell-based. The note with it: Homo sapiens, Leukemia. How it is done:
as §1

The test system of another data set is A375. In words: Growth inhibition (cell counting, day 5). Format: cell-based. The conditions noted are these: Homo sapiens, A-375; Melanoma. As for the experimental part: as §1
A further data set has as its system SW480. The experiment in a line: Growth inhibition (cell counting, day 5). The conditions noted are these: Homo sapiens, Colon. Format: cell-based. How it is done: as §1
Another data set deals with SKBR3. In words: Growth inhibition (cell counting, day 5). The conditions noted are these: Homo sapiens, SK-BR-3; Breast. Format: cell-based. As for the experimental part: as §1
A further data set concerns MOLM-13. In words: Growth inhibition (cell counting, day 5). Type of data set: cell-based. The note with it: Homo sapiens, Leukemia. As for the experimental part:
as §1

In the next data set the test system is HS936T. The experiment in a line: Growth inhibition (cell counting, day 5). Type of data set: cell-based. The conditions noted are these: Melanoma. How it is done:
as §1

Another data set concerns DU145. The experiment in a line: Growth inhibition (cell counting, day 5). Format: cell-based. The conditions noted are these: Homo sapiens, DU-145; Prostate. How it is done:
as §1

In another data set the test system is WM3918. In words: Growth inhibition (cell counting, day 5). Type of data set: cell-based. The note with it: Melanoma. As for the experimental part: as §1
For a further data set, the system named is HT29 cells. In words: HT29 colon cancer xenograft in NSG mice. Type of data set: in vivo. The conditions noted are these: HT29 s.c. in NSG mice, 20 mg/kg i.p. q.o.d. How it is done: Fig. 3 Antitumor, survival, and metabolic effects of MC180295 and its enantiomers, MC180379 and MC180380. A Antitumor effects of MC180295, MC180379, and MC180380. NSG mice were inoculated (s.c.) with 2 × 10^6 SW48 cells. Eleven days later, when tumors were palpable, 20 mg/kg MC180295, MC180379, MC180380, or vehicle were administered (i.p.) every other day (q.o.d.). Tumor sizes were measured using a caliper. […] C Antitumor effects of MC180379 and MC180380. NSG mice were inoculated (s.c.) with 1 × 10^6 HT29 cells. Twelve days later, when tumors were palpable, 20 mg/kg MC180379, MC180380, or vehicle were administered (i.p.) q.o.d. Tumor sizes were measured using a caliper. D HT29-xenografted mouse survival following (i.p.) q.o.d. dosing with 20 mg/kg MC180379 or MC180380. E NSG mice were inoculated (i.p.) with 5 × 10^5 MV4-11-luc cells. Four days later, when substantial tumor burden was evident by bioluminescence imaging, MC180379, MC180380, or vehicle were administered (i.p.) q.o.d at 20 mg/kg. Luciferase expression was quantified and calculated. F Mouse survival in days. […] G In vitro liver microsome stability and rat hepatocyte/Sprague–Dawley stability assay comparing MC180379 to MC180380. The dog breed was beagle and the mouse microsome strain was CD-1. […] Significances were calculated using log-rank (Mantel-Cox) or Student’s t tests. […]

A word on the Cmax: it is the highest concentration seen after dosing. For orientation: clearance means a measure of how efficiently the substance is removed, as volume per time. A low value points to inefficient removal. One may read the IC50 as the concentration that inhibits the measured activity by half. Take `Nc1nc(N[C@H]2C[C@@H]3CC[C@H]2C3)sc1C(=O)c1ccccc1[N+](=O)[O-]` (relative stereo) [MC180295]: the half-life in the data set “Pharmacokinetics in rats” (given IV to rats, read-out: half-life (converted)) was approximately 14 h; in the data set “Pharmacokinetics in rats” (rats, IV 1 mg/kg, Mean, read-out: T1/2 (converted)), 14 h; in the data set “Pharmacokinetics in rats” (rats, IV 1 mg/kg, Rat -1, read-out: T1/2 (converted)), 17.9 h; in “Pharmacokinetics in rats” (rats, IV 1 mg/kg, Rat -2, read-out: T1/2 (converted)), 9.98 h; in “Pharmacokinetics in rats” (rats, IV 1 mg/kg, Rat -3, read-out: T1/2 (converted)) it was 14 h. Also, the Cmax in the data set “Pharmacokinetics in rats” (rats, IV 1 mg/kg, Mean) stood at 635 ng/mL; in the data set “Pharmacokinetics in rats” (rats, IV 1 mg/kg, Rat -1) it was 385 ng/mL; in the data set “Pharmacokinetics in rats” (rats, IV 1 mg/kg, Rat -2), 568 ng/mL; in “Pharmacokinetics in rats” (rats, IV 1 mg/kg, Rat -3) it was 951 ng/mL. Besides, the clearance is 5.2 mL/min in the data set “Pharmacokinetics in rats” (rats, IV 1 mg/kg, Mean); 6.4 mL/min in “Pharmacokinetics in rats” (rats, IV 1 mg/kg, Rat -1); 5.1 mL/min in the data set “Pharmacokinetics in rats” (rats, IV 1 mg/kg, Rat -2); 4.1 mL/min in “Pharmacokinetics in rats” (rats, IV 1 mg/kg, Rat -3). Moreover, the AUC(0-t) in “Pharmacokinetics in rats” (rats, IV 1 mg/kg, Mean) came out at 679 ng·h/mL; in “Pharmacokinetics in rats” (rats, IV 1 mg/kg, Rat -1) it was 470 ng·h/mL; in “Pharmacokinetics in rats” (rats, IV 1 mg/kg, Rat -2), 687 ng·h/mL; in the data set “Pharmacokinetics in rats” (rats, IV 1 mg/kg, Rat -3), 879 ng·h/mL. Further, the Vd is 4.46 L in the data set “Pharmacokinetics in rats” (rats, IV 1 mg/kg, Mean); 6.87 L in the data set “Pharmacokinetics in rats” (rats, IV 1 mg/kg, Rat -1); 3.74 L in “Pharmacokinetics in rats” (rats, IV 1 mg/kg, Rat -2); 2.76 L in the data set “Pharmacokinetics in rats” (rats, IV 1 mg/kg, Rat -3). For the same molecule, the IC50 in the data set with UC3 amounted to 101 nM; in the data set with WM983B, 250 nM; with SW48, 98.1 nM; in the data set on M14 it was 305 nM; with Raji, 137 nM; in the data set with A2058, 198 nM. Moreover, the IC50 with 451LU is 110 nM; with HCC2218, 70.6 nM; with VACCC257, 343 nM; with J-Tag it was 112 nM; in the data set with HT29 it was 75.6 nM; in the data set on RKO, 76.8 nM. Besides, the half-inhibitory concentration (IC50) in the data set on UC6 came to 143 nM; with Jurkat, 141 nM; in the data set on A375 it was 189 nM; with SW480, 154 nM; in the data set with SKBR3, 122 nM; with MOLM-13 it was 44 nM. The IC50 came to 391 nM in the data set with HS936T, 211 nM with DU145 and 150 nM in the data set on WM3918.
As for `Nc1nc(N[C@H]2C[C@@H]3CC[C@H]2C3)sc1C(=O)c1ccccc1[N+](=O)[O-]` [MC180380], the survival entry with HT29 cells is listed as “extending survival longer than MC180379”.
